In PMC8880564, “Design, Synthesis, and Biological Evaluation of a Novel VEGFR-2 Inhibitor Based on a 1,2,5-Oxadiazole-2-Oxide Scaffold with MAPK Signaling Pathway Inhibition” (Pharmaceuticals, 2022):

Experiments:
Format in all cases: cell-based
SR = assay: NCI-60 one-dose SRB screening; settings: Homo sapiens, Leukemia, 10 µM one dose, 48 h, read-out: growth percentage
DU-145 = assay: NCI-60 one-dose SRB screening; settings: Homo sapiens, DU-145, Prostate Cancer, 10 µM one dose, 48 h, read-out: growth percentage
COLO 205 = assay: NCI-60 one-dose SRB screening; settings: Homo sapiens, COLO 205, Colon Cancer, 10 µM one dose, 48 h, read-out: growth percentage
CAKI-1 = assay: NCI-60 one-dose SRB screening; settings: Homo sapiens, CAKI-1, Renal Cancer, 10 µM one dose, 48 h, read-out: growth percentage
HOP-92 = assay: NCI-60 one-dose SRB screening; settings: Homo sapiens, HOP-92, Non-Small Cell Lung Cancer, 10 µM one dose, 48 h, read-out: growth percentage
LOX IMVI = assay: NCI-60 one-dose SRB screening; settings: Homo sapiens, Melanoma, 10 µM one dose, 48 h, read-out: growth percentage
HCT-116 = assay: NCI-60 one-dose SRB screening; settings: Homo sapiens, HCT-116, Colon Cancer, 10 µM one dose, 48 h, read-out: growth percentage
CCRF-CEM = assay: NCI-60 one-dose SRB screening; settings: Homo sapiens, Leukemia, 10 µM one dose, 48 h, read-out: growth percentage
MOLT-4 = assay: NCI-60 one-dose SRB screening; settings: Homo sapiens, MOLT-4, Leukemia, 10 µM one dose, 48 h, read-out: growth percentage
NCI/ADR-RES = assay: NCI-60 one-dose SRB screening; settings: Homo sapiens, Ovarian Cancer, 10 µM one dose, 48 h, read-out: growth percentage
HS 578T = assay: NCI-60 one-dose SRB screening; settings: Homo sapiens, Breast Cancer, 10 µM one dose, 48 h, read-out: growth percentage
ACHN = assay: NCI-60 one-dose SRB screening; settings: Homo sapiens, Renal Cancer, 10 µM one dose, 48 h, read-out: growth percentage
KM12 = assay: NCI-60 one-dose SRB screening; settings: Homo sapiens, KM12, Colon Cancer, 10 µM one dose, 48 h, read-out: growth percentage
TK-10 = assay: NCI-60 one-dose SRB screening; settings: Homo sapiens, TK-10, Renal Cancer, 10 µM one dose, 48 h, read-out: growth percentage
SNB-19 = assay: NCI-60 one-dose SRB screening; settings: Homo sapiens, SNB-19, CNS Cancer, 10 µM one dose, 48 h, read-out: growth percentage
OVCAR-8 = assay: NCI-60 one-dose SRB screening; settings: Homo sapiens, OVCAR-8, Ovarian Cancer, 10 µM one dose, 48 h, read-out: growth percentage
[1] = tested on: NCI-59 human cancer cell lines; assay: NCI-60 one-dose SRB screening, full panel and subpanels; settings: for activity at 10 µM: mean over the full panel, 10 µM one dose, 48 h, SRB, read-out: growth percentage, Mean
Method: The structures of the synthesized compounds 6a–h, 12a–c, 11, 13a–c, and 14a–c were submitted to the National Cancer Institute’s Developmental Therapeutics Program (NCI-DTP), and all of them were selected for preliminary in vitro anticancer activity screening against NCI-59 human cancer cell lines at a concentration of 10 µM, using the sulforhodamine B (SRB) assay to determine the growth percentage and cell viability.
The in vitro NCI-60 cell line screening assay was conducted at the National Cancer Institute (NCI), Bethesda, USA against 59 cancer cell lines representing 9 types of cancers, as reported earlier. Briefly, the human cancer cell lines were grown in RPMI 1640 medium containing 5% fetal bovine serum and 2 mM L-glutamine and inoculated into 96-well microtiter plates in 100 μL (5000 to 40,000 cells/well). Then, the plates were incubated at 37 °C, 5% CO2, 95% air, and 100% relative humidity for 24 h. After that, two plates of each cell line were fixed in situ with TCA, to represent cell population at time zero (Tz). The tested compounds were dissolved in DMSO at 400-fold and added so that the final concentration became 10 μM. The plates were then incubated for an additional 48 h followed by the addition of cold TCA to terminate the assay in case of adherent cells. Then, the cells were fixed in situ by cold 50% (w/v) TCA (50 μL; final concentration, 10% TCA) and incubated for 1 h at 4 °C. After discarding the supernatant, the plates were washed 5 times with tap water and air dried. Sulforhodamine B (SRB) solution (100 μL) at 0.4% (w/v) in 1% HOAc was added to each well, and plates were incubated for 10 min. at rt. Then, washing with 1% acetic acid was conducted 5 times to remove the unbound dye followed by air drying. After that, 10 mM trizma base was added to solubilize the bound stain, and the absorbance was read on an automated plate reader at a wavelength of 515 nm. On the other hand, the methodology for suspension cells was the same except that 50 μL of 80% TCA (final concentration, 16% TCA) was gently added to terminate the assay by fixing settled cells at the bottom of the wells. Percentage growth inhibition (GI%) was calculated as follows:
Growth percentage=Ti (test growth in the presence of compound at 10 µM )−Tz (time zero)/C (control growth)−Tz (time zero)×100 for Ti ≥ Tz;
Growth percentage=Ti (test growth in the presence of compound at 10 µM )−Tz (time zero)/Tz (time zero)×100 for Ti < Tz.
where values of 100, 40, 0, −40, and −100 mean no GI, 60% GI, no net G, 40% lethality, and all cells are dead, respectively.
Data are expressed as a one-dose mean graph of growth percentages including the mean, delta, and range.

SMILES: [O-][n+]1onc(-c2ccccc2)c1COc1ccc(Nc2ncnc3c2cnn3-c2ccccc2)cc1 [6a, 4-phenyl-3-((4-((1-phenyl-1H-pyrazolo[3,4-d]pyrimidin-4-yl)amino)phenoxy)methyl)-1,2,5-oxadiazole 2-oxide]
- activity at 10 µM (SR): 85.2%
- activity at 10 µM (DU-145): 107%
- activity at 10 µM (COLO 205): 104%
- activity at 10 µM (CAKI-1): 99.4%
- activity at 10 µM (HOP-92): 115%
- activity at 10 µM (LOX IMVI): 94.3%
- activity at 10 µM (HCT-116): 93%
- activity at 10 µM (CCRF-CEM): 91%
- activity at 10 µM (MOLT-4): 87.4%
- activity at 10 µM (NCI/ADR-RES): 102%
- activity at 10 µM (HS 578T): 98.7%
- activity at 10 µM (ACHN): 105%
- activity at 10 µM (KM12): 103%
- activity at 10 µM (TK-10): 103%
- activity at 10 µM (SNB-19): 105%
- activity at 10 µM (OVCAR-8): 105%
- activity at 10 µM ([1]; Homo sapiens): 100%
- mean growth inhibition % (MGI%, GI%) ([1]; full NCI-59 panel, 10 µM): no mean growth inhibition percentage

SMILES: Cc1nc(Nc2ccc(OCc3c(-c4ccccc4)no[n+]3[O-])cc2)c2cnn(-c3ccccc3)c2n1 [6b, 3-((4-((6-methyl-1-phenyl-1H-pyrazolo[3,4-d]pyrimidin-4-yl)amino)phenoxy)methyl)-4-phenyl-1,2,5-oxadiazole 2-oxide]
- activity at 10 µM (SR): 89.1%
- activity at 10 µM (DU-145): 105%
- activity at 10 µM (COLO 205): 114%
- activity at 10 µM (CAKI-1): 87.6%
- activity at 10 µM (HOP-92): 91.4%
- activity at 10 µM (LOX IMVI): 97.6%
- activity at 10 µM (HCT-116): 99.2%
- activity at 10 µM (CCRF-CEM): 102%
- activity at 10 µM (MOLT-4): 117%
- activity at 10 µM (NCI/ADR-RES): 103%
- activity at 10 µM (HS 578T): 110%
- activity at 10 µM (ACHN): 105%
- activity at 10 µM (KM12): 102%
- activity at 10 µM (TK-10): 94.8%
- activity at 10 µM (SNB-19): 99.3%
- activity at 10 µM (OVCAR-8): 105%
- activity at 10 µM ([1]; Homo sapiens): 102%
- enhancement of the growth percentage (mean) ([1]; full NCI-59 panel, 10 µM): 1–5%

SMILES: Cc1nn(-c2ccccc2)c2ncnc(Nc3ccc(OCc4c(-c5ccccc5)no[n+]4[O-])cc3)c12 [6c, 3-((4-((3-methyl-1-phenyl-1H-pyrazolo[3,4-d]pyrimidin-4-yl)amino)phenoxy)methyl)-4-phenyl-1,2,5-oxadiazole 2-oxide]
- activity at 10 µM (SR): 73.9%
- activity at 10 µM (DU-145): 106%
- activity at 10 µM (COLO 205): 116%
- activity at 10 µM (CAKI-1): 86%
- activity at 10 µM (HOP-92): 91.2%
- activity at 10 µM (LOX IMVI): 101%
- activity at 10 µM (HCT-116): 81.8%
- activity at 10 µM (CCRF-CEM): 97.4%
- activity at 10 µM (MOLT-4): 92.9%
- activity at 10 µM (NCI/ADR-RES): 91.7%
- activity at 10 µM (HS 578T): 97.5%
- activity at 10 µM (ACHN): 97.3%
- activity at 10 µM (KM12): 99.8%
- activity at 10 µM (TK-10): 110%
- activity at 10 µM (SNB-19): 101%
- activity at 10 µM (OVCAR-8): 101%
- inhibition at 10 µM ([1]; Homo sapiens, full NCI-59 panel, 10 µM, read-out: mean growth inhibition % (MGI%, GI%)): 1.58 to 4.57%
- activity at 10 µM ([1]; Homo sapiens): 96.2%

SMILES: Cc1nc(Nc2ccc(OCc3c(-c4ccccc4)no[n+]3[O-])cc2)c2c(C)nn(-c3ccccc3)c2n1 [6d, 3-((4-((3,6-dimethyl-1-phenyl-1H-pyrazolo[3,4-d]pyrimidin-4-yl)amino)phenoxy)methyl)-4-phenyl-1,2,5-oxadiazole 2-oxide]
- activity at 10 µM (SR): 102%
- activity at 10 µM (DU-145): 112%
- activity at 10 µM (COLO 205): 107%
- activity at 10 µM (CAKI-1): 101%
- activity at 10 µM (HOP-92): 104%
- activity at 10 µM (LOX IMVI): 96.6%
- activity at 10 µM (HCT-116): 104%
- activity at 10 µM (CCRF-CEM): 113%
- activity at 10 µM (MOLT-4): 110%
- activity at 10 µM (NCI/ADR-RES): 102%
- activity at 10 µM (HS 578T): 102%
- activity at 10 µM (ACHN): 95.5%
- activity at 10 µM (KM12): 104%
- activity at 10 µM (TK-10): 126%
- activity at 10 µM (SNB-19): 99.6%
- activity at 10 µM (OVCAR-8): 107%
- activity at 10 µM ([1]; Homo sapiens): 105%
- enhancement of the growth percentage (mean) ([1]; full NCI-59 panel, 10 µM): 1–5%
